# Laboratory results published in patent publication US20170042888A1, “GLYT1 INHIBITORS FOR USE IN THE TREATMENT OF HEMATOLOGICAL DISORDERS” (Hoffmann-La Roche Inc., priority 2014, published 2017).
# Experiments:
# female Wistar rats [1] = test: 8-week dietary admix study in female Wistar rats, hematological parameters in peripheral blood (SYSMEX XT analyser); type: in vivo, rat
# Experimental: FIG. 1 Effect of 4-(3-fluoro-5-trifluoromethyl-pyridin-2-yl)-piperazin-1-yl]-[5-methanesulfonyl-2-((S)-2,2,2-trifluoro-1-methyl-ethoxy)-phenyl]-methanone on mean group hemoglobin in female rats (8-week study)
# 4-(3-Fluoro-5-trifluoromethyl-pyridin-2-yl)-piperazin-1-yl]-[5-methanesulfonyl-2-((S)-2,2,2-trifluoro-1-methyl-ethoxy)-phenyl]-methanone was administered daily for 8-weeks by dietary admix to female Wistar rats to achieve doses of 1, 3, and 8 mg/kg/day, followed by a 4-week recovery period off treatment. The control group received standard diet only during the whole study period. At various time points during the study hematological parameters including Hb were investigated in peripheral blood using a SYSMEX XT analyser. Data represent group mean values and error bars indicate standard deviation (SD).
# FIG. 3 Effect of 4-(3-fluoro-5-trifluoromethyl-pyridin-2-yl)-piperazin-1-yl]-[5-methanesulfonyl-2-((S)-2,2,2-trifluoro-1-methyl-ethoxy)-phenyl]-methanone on mean group MCH in female rats (8-week study)
# 4-(3-fluoro-5-trifluoromethyl-pyridin-2-yl)-piperazin-1-yl]-[5-methanesulfonyl-2-((S)-2,2,2-trifluoro-1-methyl-ethoxy)-phenyl]-methanone was administered daily for 8-weeks by dietary admix to female Wistar rats to achieve doses of 1, 3, and 8 mg/kg/day followed by a 4-week recovery period off treatment. The control group received standard diet during the whole study period. At various time points during the study hematological parameters including MCH were investigated in peripheral blood using a SYSMEX XT analyser. Data represent group mean values and error bars indicate the standard deviation (SD).
# [2] = tested on: soluble transferrin receptor (sTfrR); test: 36-week oral study in cynomolgus monkeys, sTfR in peripheral blood (SISCAPA assay with mass spectrometry); type: in vivo, cynomolgus monkey; conditions: cynomolgus monkeys, 1, 3 and 9 mg/kg/day by capsule via oral gavage for 36 weeks (FIG. 5)
# Experimental: FIG. 5 Effect of 4-(3-fluoro-5-trifluoromethyl-pyridin-2-yl)-piperazin-1-yl]-[5-methanesulfonyl-2-((S)-2,2,2-trifluoro-1-methyl-ethoxy)-phenyl]-methanone on sTrfR in female cynomolgus monkeys
# 4-(3-fluoro-5-trifluoromethyl-pyridin-2-yl)-piperazin-1-yl]-[5-methanesulfonyl-2-((S)-2,2,2-trifluoro-1-methyl-ethoxy)-phenyl]-methanone was administered by capsule via oral gavage to 4 male and 4 female cynomolgus monkeys per group at dose levels of control vehicle, 1, 3 and 9 mg/kg/day for 36 weeks. An additional 2 animals per sex from the control and high-dose group were maintained for an additional 13-week recovery period for assessment of reversibility of any findings. Measurement of sTfR was performed on various occasions during the study in peripheral blood samples. Measurements were done using a SISCAPA Assay Technologies Inc. developed assay, designed to identify the soluble fragment of the human transferrin receptor (sTfR) in serum, plasma and blood using the SISCAPA® workflow in combination with mass spectrometry. The human assay was adapted and validated for cynomolgus sTf measurements. Data shown represent group mean values, error bars indicate the standard deviation.
# female Wistar rats [3] = test: 26-week oral gavage study in female Wistar rats, hematological parameters in peripheral blood (Bayer ADVIA 120); type: in vivo, rat
# Experimental: FIG. 2 Effect of [5-Methanesulfonyl-2-((S)-2,2,2-trifluoro-1-methyl-ethoxy) phenyl]-(3-trifluoromethyl-5,7-dihydro-pyrrolo[3,4-b]pyridin-6-yl)-methanone on mean group hemoglobin in female rats (26-week study)
# (§1) [5-Methanesulfonyl-2-((S)-2,2,2-trifluoro-1-methyl-ethoxy)phenyl]-(3-trifluoromethyl-5,7-dihydro-pyrrolo[3,4-b]pyridin-6-yl)-methanone was administered daily for 26-weeks by oral gavage to 20 females Wistar rats per group at doses of 2, 6 and 12 mg/kg/day, followed by a 4-week recovery period off treatment for which 6 additional females where allocated per dose group. The control group was treated with a vehicle control during the dosing period. At various time points during the study hematological parameters including Hb were investigated in peripheral blood using the Bayer, ADVIA 120 hematology analyser. Data represent group mean values and error bars indicate the standard deviation (SD).
# FIG. 4 Effect of [5-Methanesulfonyl-2-((S)-2,2,2-trifluoro-1-methyl-ethoxy)phenyl](3-trifluoromethyl-5,7-dihydro-pyrrolo[3,4-b]pyridin-6-yl)-methanone on mean group MCH in female rats (26-week study)
# as §1, with “[5-Methanesulfonyl-2-((S)-2,2,2-trifluoro-1-methyl-ethoxy)phenyl](3-trifluoromethyl-5,7-dihydro-pyrrolo[3,4-b]pyridin-6-yl)-methanone” for “[5-Methanesulfonyl-2-((S)-2,2,2-trifluoro-1-methyl-ethoxy)phenyl]-(3-trifluoromethyl-5,7-dihydro-pyrrolo[3,4-b]pyridin-6-yl)-methanone”, “haematology” for “hematology”
SMILES,"overall maximal decrease in total hemoglobin concentration (female Wistar rats [1]; female Wistar rats, 1, 3 and 8 mg/kg/day by dietary admix for 8 weeks)","induced erythropoiesis type (female Wistar rats [1]; female Wistar rats, 1, 3 and 8 mg/kg/day by dietary admix for 8 weeks, all dose levels)","total hemoglobin concentration (female Wistar rats [1]; female Wistar rats, 1, 3 and 8 mg/kg/day by dietary admix for 8 weeks, all dose levels (FIG. 1))","intracellular hemoglobin, MCH (female Wistar rats [1]; female Wistar rats, 1, 3 and 8 mg/kg/day by dietary admix for 8 weeks, all dose levels (FIG. 3))","reversibility of the hemoglobin effect (female Wistar rats [1]; female Wistar rats, 4-week recovery period off treatment after 8 weeks)",soluble transferrin receptor (sTfrR) in peripheral blood [2],"overall maximal decrease in total hemoglobin concentration (female Wistar rats [3]; female Wistar rats, 2, 6 and 12 mg/kg/day by oral gavage for 26 weeks)","induced erythropoiesis type (female Wistar rats [3]; female Wistar rats, 2, 6 and 12 mg/kg/day by oral gavage for 26 weeks, all dose levels)","total hemoglobin concentration (female Wistar rats [3]; female Wistar rats, 2, 6 and 12 mg/kg/day by oral gavage for 26 weeks, all dose levels (FIG. 2))","intracellular hemoglobin, MCH (female Wistar rats [3]; female Wistar rats, 2, 6 and 12 mg/kg/day by oral gavage for 26 weeks, all dose levels (FIG. 4))","reversibility of the hemoglobin effect (female Wistar rats [3]; female Wistar rats, 4-week recovery period off treatment after 26 weeks)"
"C[C@H](Oc1ccc(S(C)(=O)=O)cc1C(=O)N1CCN(c2ncc(C(F)(F)F)cc2F)CC1)C(F)(F)F [[4-(3-fluoro-5-trifluoromethyl-pyridin-2-yl)-piperazin-1-yl]-[5-methanesulfonyl-2-((S)-2,2,2-trifluoro-1-methyl-ethoxy)-phenyl]-methanone]",≤ 20%,"microcytic, hypochromic erythropoiesis",reduction,reduction,reversible,dose-dependent decrease,,,,,
"C[C@H](Oc1ccc(S(C)(=O)=O)cc1C(=O)N1Cc2cc(C(F)(F)F)cnc2C1)C(F)(F)F [[5-methanesulfonyl-2-((S)-2,2,2-trifluoro-1-methyl-ethoxy)-phenyl]-(3-trifluoromethyl-5,7-dihydro-pyrrolo[3,4-b]pyridin-6-yl)-methanone]",,,,,,,≤ 20%,"microcytic, hypochromic erythropoiesis",reduction,reduction,reversible
